The values that follow come from patent publication US9456589B2, “Elasmobranch-repelling compounds and methods of use” (priority 2005, dated 2016).

Experiment [1] relates to lemon sharks. Description: Tonic immobility, Micropipette Assay. In kind it is in vivo, N. brevirostris. Particulars: for Comments (behavior observed): lemon / juvenile sharks, micropipette. The procedure: (§1) One bioassay used to observe and measure flight response is the tonic immobility test. Tonic immobility is a state of paralysis that typically occurs when a shark is subject to inversion of its body along the longitudinal axis. This state is called “tonic,” and the shark can remain in this state for up to 15 minutes thereby allowing researchers to observe effects of chemical repellents. The “tonic” state of the shark is first established by releasing seawater in proximity to the “tonic” shark with the same delivery instrument and at the same distance as a “test” repellent compound will be released. Some controls are released with a high flow rate (30 mL/sec) in order to establish that sharks are not awakened by a jet of fluid over their noses. Once behavioral controls are established, a compound or composition that may have a repelling effect is delivered to the shark. If the compound or composition engenders a flight response, the shark will awaken from the tonic state and rapidly attempt to flee the delivered repellent. Using this tonic immobility bioassay researches can quantify the strength of a repellent effect.
A fourth method of delivery was called the “Micropipette Assay” method of delivery. In this method, a very small dose (fraction of a mL) of a test substance was delivered directly into a shark's mouth. […] A response, such as a cough or other notable action of the shark, was usually noted when effective gustatory repellents were delivered directly into a shark's mouth while in tonic immobility.
The Micropipette Assay method has not proven to be a particularly effective method of assaying for a flight response in elasmobranchs. The Micropipette Assay method is, nevertheless, an excellent method for specifying that a gustatory response has occurred. It is effective for specifying a gustatory response because the micropipette delivery method allows direct delivery of an entire bolus of test substance into the mouth of the shark being tested.
Using a microliter syringe or microliter pipette, a bolus of test chemical can be directed precisely into one of the shark's nares, or its mouth. […] Olfactory repellents will terminate tonic immobility almost immediately when injected into a nare of the shark.
(§2) Lemon, nurse, blacktip and tiger sharks were placed in tonic immobility by inverting the shark's body along its longitudinal axis. […] The “tonic” state of each shark was first established by releasing a control of seawater in proximity to the shark with the same delivery instrument and at the same distance as the chemical repellent would later be delivered. In certain controls, sea water was released with a high flow rate (30 mL/sec) in order to establish that the sharks would not be awakened by a jet of fluid over their noses.
(§3) Once behavioral controls were established, the chemical repellent was delivered to the shark using the Hd Syringe Assay method, the Syringe 3/5/10 Assay method, the Bite Assay method or the Micropipette Assay method. […] If tonic immobility was terminated, the positive response was denoted as “Y.” If tonic immobility was not terminated but a behavior change within tonic immobility was noted, such as the opening of the mouth or a cough, the response was denoted as an “R” for reduced response. If no behavior change was observed, the negative response was denoted “N.”
Further because the Micropipette assays were often done serially on the same set of sharks, second and third doses of the repellent over time would be expected to evoke less of a reaction. Nevertheless, the small doses delivered to the shark in the Micropipette assay provide important data on whether a compound is a gustatory stimulant because the small dose may be delivered directly into the mouth of the shark. This eliminates any olfactory response that might be acting in concert with a gustatory response to terminate tonic immobility.

The test system of a further experiment is juvenile sharks. Description: Initial tonic immobility assays, mouth delivery by micropipette or syringe. In kind it is in vivo. Particulars: introduced to the mouth using a micropipette or syringe.
The subject of experiment [2] is sharks (lemon, nurse, tiger pooled). Description: Tonic immobility, Hd Syringe Assay, summary over species. In kind it is in vivo. Particulars: species pooled. The procedure:
as §1
In Hd-Syringe Assays, the 3-methylbutanal was delivered to the shark's mouth and nares using a 3 mL hypodermic syringe fitted with a 22 gauge needle. The needle was held within 3 inches of the shark's mouth and the test repellent was slowly released from the syringe with a very fine plume in the water column. Any response was denoted. If a response occurred during a measurable time after delivery of the test chemical, the time between delivery and response was noted. If a response occurred immediately or the response occurred before a measurable time could be established, no time to response was noted.

In experiment [3] the test system is lemon sharks. Description: Tonic immobility, Syringe Assay. It is filed as in vivo, N. brevirostris. On the procedure: as §1
(§4) A second delivery method called the “Syringe Assay” method delivered a dose of 60 mL or more of a test chemical repellent from at least one foot, and up to as many as five feet, from a shark. The distance of delivery was determined based on the strength of the water current in the direction of the shark. Time from delivery of the test substance until response was observed, measured and recorded. The “Syringe” method allows a researcher to observe how a diffusing and diluting cloud of test chemical repellent affects the shark's behavior when the shark encounters the delivered cloud of test substance. The “Syringe” method requires relatively large doses because of the diffusion of the cloud over time and distance. Time from delivery to response is related to the size of the bolus delivered from the syringe, distance of the shark from the syringe and water current.
as §2, §3
(§5) In the Syringe assay about 60 mL or more of valeraldehyde was delivered from one to as many as five feet from the shark depending on the water current. […] Time from delivery to response was related to the size of the bolus delivered from the syringe, distance of the shark from the syringe and water current.

Experiment [4] relates to sharks (lemon, nurse, blacknose, blacktip pooled). Briefly: Tonic immobility, Syringe Assay, summary over species. In kind it is in vivo. The procedure: as §1, §4, §5
For another experiment, the system named is nurse sharks. Description: Tonic immobility, Syringe Assay. In kind it is in vivo, C. cirratum.
For a further experiment, the system named is sharks (species pooled). Description: Tonic immobility, total of delivery methods not including Micropipette assays. It is filed as in vivo. Particulars: species and delivery methods pooled. On the procedure: as §1
Table 1, which summarizes the data in Tables 14 and 15, evidences the gustatory repellent characteristics of methylbutanals. In 35 of 36 assays (combining columns “Y” and “R” under the column labeled “Total (Not including Micropipette Assays)” to arrive at a 97% effectiveness rate), including assays on lemon, nurse, tiger and blacktip sharks, the gustatory repellent activity of 3-methylbutanal was established. In 81% of assays, tonic immobility was fully terminated. […] In only a single assay did a shark not respond to treatment with 3-methylbutanal.

Experiment [5] relates to Caribbean reef sharks and blacknose sharks. Briefly: Cage Assay on free-swimming sharks. In kind it is in vivo, C. perezii, C. acronotus. To be noted: for Cage Y (repellent activity), trials of trials: 500 mL delivered at baited cage; for number of strikes at the baited cage / return of sharks / interactions with the baited cage after 10 minutes: 500 mL of 50% w/w in diethylene glycol monoethyl ether. From the text:
Another bioassay used to observe a flight response in sharks is a free-swimming test using a small metal cage containing bait. This assay is referred to as a “Cage Assay.” The cage with bait is suspended below a float in the water column. A ⅜ inch diptube is secured from the cage to the boat and carried chemical compounds to the proximity of the cage where the test substances were delivered. Sharks are drawn to the vicinity of the boat with chum. Sharks are observed to immediately bump and bite at the cage wherein bait was contained. The number of interactions between the sharks and the cage are recorded over time. Test chemical repelling substance is delivered to the vicinity of the cage through the diptube. The frequency of bumps and strikes by sharks against the cage is then monitored and recorded. If bumps and strikes by sharks cease for a period of time, that time period is also recorded. In the free-swim ring tests disclosed herein using a baited cage, the volume of test chemical repellent delivered into the vicinity of the cage was about 500 mL.
A series of chemical repellent tests on free-swimming Caribbean reef sharks (C. perezii) and blacknose sharks (C. acronotus) was performed in tropical waters. A small metal cage containing bait was suspended below a float in the water column. A ⅜″ ID HDPE diptube was secured from the cage to the boat, so that chemical compounds could be transported to the cage's proximity. Sharks were stimulated using bunker chum in bags.
The number of interactions was recorded using an underwater pole-camera.

Values joined by “and” are separate entries in the source; they are usually repeats but may differ in a detail not shown here. Equal entries are not always repeated. “Also recorded” adds a separate entry of the source. Where two headings read alike, the source gives them in different places.

Turning to `Cc1cccnc1N` [2-amino-3-picoline 95%, 2-amino-3-picoline], the “Comments (behavior observed)” value in the experiment on lemon sharks [1] was “violent seizure; also recorded: VIOLENT/SEIZURE”. Further, the “Comments (behavior observed)” value in the experiment with lemon sharks [1] (listed as aminopicoline) is “violent responses”. In addition, in the experiment on lemon sharks [1] (lemon sharks), the “Micropipette assays terminating tonic immobility” value is “one” and the “Micropipette assays with a response” value was “two of two”.
Consider `Cc1ncccc1N` [3-amino-2-picoline], for which the “result of initial tonic immobility assays” value (“result” for short) with juvenile sharks was “terminated tonic immobility”.
Regarding `Cc1cccnc1` [3-methylpyridine], the “result” value in the experiment on juvenile sharks was “terminated tonic immobility”. The “Hd-Syringe Y (termination of tonic immobility), trials of trials” value in experiment [2] was “three of three and 3/3”.
On to `CCCC=O` [Butyraldehyde, butyraldehyde], for which the “Syringe assays terminating tonic immobility (text)” value in the experiment on lemon sharks [3] is “resulting in termination of tonic immobility”; in the experiment on nurse sharks, “two”. In addition, the “Syringe Y (termination of tonic immobility), trials of trials” value in experiment [4] was 4/4; in experiment [4] (listed as butyraldehyde), 4 of 5. The “Syringe assays with no response” value in the experiment on nurse sharks is listed as “one”. In addition, in the experiment on sharks (species pooled), the “Total (Not including Micropipette assays / Effective Delivery Methods) Y, trials of trials” value is given as 4/4. In the experiment with sharks (species pooled), the “Total Y, percent of trials” value is listed as 100%.
`CC(C)c1ccc(C=O)cc1` [Cuminaldehyde, cuminaldehyde]: the “Syringe assays terminating tonic immobility (text)” value in the experiment with lemon sharks [3] is “resulted in termination of tonic immobility”. Moreover, the “Syringe Y (termination of tonic immobility), trials of trials” value is recorded as 1/1 in experiment [4] and “terminated” in experiment [4] (listed as cuminaldehyde). The “Total (Not including Micropipette assays / Effective Delivery Methods) Y, trials of trials” value in the experiment with sharks (species pooled) is on record as 1/1.
For the molecule `CC(=O)/C=C/C1C(C)=CCCC1(C)C` (stereo not drawn) [Ionone, alpha-ionone], in experiment [5], the “Cage Y (repellent activity), trials of trials” value (“Cage Y (repellent activity)” for short) is 1/1. In addition, the results for the “number of strikes at the baited cage” value in experiment [5] (listed as alpha-ionone) and in experiment [5] (listed as ionone) were “reduced” and “decrease in the number of strikes”, respectively. For the same molecule, the “return of sharks / interactions with the baited cage after 10 minutes” value (“return of sharks / interactions” below) is “interactions continued after a 10 minute period” in experiment [5] (listed as alpha-ionone) and “lull in feeding for 10 minutes” in experiment [5] (listed as ionone).
In the case of `O=Cc1ccc2c(c1)OCO2` [Piperonal, piperonal], in experiment [5], the “Cage Y (repellent activity)” value was 1/1; the “number of strikes at the baited cage” value is given as “decrease in the number of strikes; also recorded: dramatically reduced”; the “return of sharks / interactions” value was “did not return; also recorded: interactions ceased”. Further, in the experiment on sharks (species pooled), the “Total (Not including Micropipette assays / Effective Delivery Methods) Y, trials of trials” value is 1/1.
For the molecule `Cc1ccc(C=O)cc1` [Tolualdehyde, p-tolualdehyde], the “Syringe assays terminating tonic immobility (text)” value with lemon sharks [3] (listed as p-tolualdehyde) is on record as “termination of tonic immobility”; in the experiment on lemon sharks [3] (listed as tolualdehyde) it was “terminated”. Moreover, the “Syringe Y (termination of tonic immobility), trials of trials” value in experiment [4] is recorded as 1/1.
Regarding `COc1cc(CCC(C)=O)ccc1O` [Zingerone, zingerone], in experiment [5], the “Cage Y (repellent activity)” value was 1/1; the “number of strikes at the baited cage” value is given as “decrease in the number of strikes; also recorded: reduced”; the “return of sharks / interactions” value is on record as “lull in feeding for 10 minutes; also recorded: interactions continued after a 10 minute period”.
Take `Cc1ccccn1` [alpha-picoline, 2-methylpyridine]: in the experiment with juvenile sharks, the “result” value is reported as “terminated tonic immobility”.
Turning to `Cc1cc(=O)n(-c2ccccc2)n1C` [antipyrine solution, antipyrine], in the experiment on lemon sharks [1] (lemon sharks), the “Micropipette assays with a response” value was “a response was observed; also recorded: evoked a response in one assay” and the “Micropipette assays with no response” value is “no response; also recorded: did not evoke a response in another”.
For the molecule `Cc1cc(C)nc(C)c1` [collidine], in the experiment with juvenile sharks, the “result” value is “terminated tonic immobility”.
For `CCCCCCCCCC=O` [decanal], the “Syringe assays terminating tonic immobility (text)” value in the experiment with lemon sharks [3] and in the experiment with nurse sharks was “terminated” each time. The “Syringe Y (termination of tonic immobility), trials of trials” value in experiment [4] is given as 1/1.
As to `Cc1ccncc1` [gamma-picoline, 4-methylpyridine], in the experiment with juvenile sharks, the “result” value is on record as “terminated tonic immobility”.
Consider `CCCCCCC=O` [heptanal], for which the “Syringe assays with no response” value in the experiment on lemon sharks [3] was “no response”. In addition, the “Syringe N (no response), trials of trials” value in experiment [4] was “no response and 1/1”.
Consider `Cc1cccc(C)n1` [lutidine], for which the “result” value with juvenile sharks was “terminated tonic immobility”.
Turning to `CC(=O)C=C(C)C` [mesityl oxide], the “Syringe assays terminating tonic immobility (text)” value in the experiment on lemon sharks [3] is reported as “terminated”. Also, the “Syringe Y (termination of tonic immobility), trials of trials” value in experiment [4] is on record as 1/1.
The like results for `CCCCCCCCC=O` [nonanal] were, in that order, “terminated” and 1/1.
The like results for `CCCCCCCC=O` [octanal] were, in that order, “terminated” and 1/1.
`COc1ccc(C=O)cc1OC` [veratraldehyde]: in experiment [4], the “Syringe N (no response), trials of trials” value was “one of seven and 1/7”; the “Syringe Y (termination of tonic immobility), trials of trials” value is “six of seven and six of six and 6/7”. In the experiment with lemon sharks [1] (lemon sharks), the “Micropipette assays with a response” value is recorded as “eight of twelve” and the “Micropipette assays with no response” value is given as “four”. Moreover, the “Syringe assays with no response” value with nurse sharks is recorded as “no response”.
